Measurements as given in ChEMBL document CHEMBL1201862, “PubChem BioAssay data set” (2004).
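Where inhibition never reached the appropriate level, the endpoint shown equals the highest concentration tested. Otherwise, values were interpolated linearly from a five-concentration, 48-hour dose response in 96-well plates. GI50: concentration for 50% inhibition of growth.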 Active and inactive are the calls of the source. Rule as the data show it: active = GI50 up to about 1.1 µM and inactive = higher.

What was measured:
Assay in all cases: growth of human tumour cells (NCI), 48 h
SR = system: SR
SNB-75 = system: SNB-75
LOX IMVI = system: LOX IMVI
HL-60 = system: HL-60
NCI-H226 = system: NCI-H226
Malme-3M = system: Malme-3M
OVCAR-4 = system: OVCAR-4
SNB-19 = system: SNB-19
SK-MEL-28 = system: SK-MEL-28
HOP-18 = system: HOP-18
SK-OV-3 = system: SK-OV-3
M19-MEL = system: M19-MEL
A498 = system: A498
SF-268 = system: SF-268
ACHN = system: ACHN
IGROV-1 = system: IGROV-1
TK-10 = system: TK-10
HCC 2998 = system: HCC 2998
EKVX = system: EKVX
HOP-62 = system: HOP-62
SK-MEL-5 = system: SK-MEL-5
HCT-116 = system: HCT-116
NCI-H522 = system: NCI-H522
OVCAR-3 = system: OVCAR-3
SN12C = system: SN12C
M14 = system: M14
SNB-78 = system: SNB-78
CCRF-CEM = system: CCRF-CEM
MOLT-4 = system: MOLT-4
KM-20L2 = system: KM-20L2
UO-31 = system: UO-31
A549 = system: A549
NCI-H23 = system: NCI-H23
COLO 205 = system: COLO 205
DMS-114 = system: DMS-114
K562 = system: K562
KM12 = system: KM12
DMS-273 = system: DMS-273
SK-MEL-2 = system: SK-MEL-2
UACC-62 = system: UACC-62
HCT-15 = system: HCT-15
SF-539 = system: SF-539
UACC-257 = system: UACC-257
OVCAR-5 = system: OVCAR-5
786-0 = system: 786-0
SW-620 = system: SW-620
RXF 631 = system: RXF 631
DLD-1 = system: DLD-1
NCI-H460 = system: NCI-H460
LXFL 529 = system: LXFL 529
OVCAR-8 = system: OVCAR-8
HT-29 = system: HT-29
U-251 = system: U-251
RXF 393 = system: RXF 393
HOP-92 = system: HOP-92
RPMI-8226 = system: RPMI-8226
SF-295 = system: SF-295
XF498 = system: XF498

## CCOC(=O)c1cnc2c(ccc3ncccc32)c1OCC
SR
  GI50: 70.6 µM (inactive)
SNB-75
  GI50: > 100 µM (inactive)
LOX IMVI
  GI50: > 100 µM (inactive)
HL-60
  GI50: > 100 µM (inactive)
NCI-H226
  GI50: > 100 µM (inactive)
Malme-3M
  GI50: > 100 µM (inactive)
OVCAR-4
  GI50: > 100 µM (inactive)
SNB-19
  GI50: > 100 µM (inactive)
SK-MEL-28
  GI50: > 100 µM (inactive)
HOP-18
  GI50: > 100 µM (inactive)
SK-OV-3
  GI50: > 100 µM (inactive)
M19-MEL
  GI50: > 100 µM (inactive)
A498
  GI50: > 100 µM (inactive)
SF-268
  GI50: > 100 µM (inactive)
ACHN
  GI50: > 100 µM (inactive)
IGROV-1
  GI50: > 100 µM (inactive)
TK-10
  GI50: 60.5 µM (inactive)
HCC 2998
  GI50: > 100 µM (inactive)
EKVX
  GI50: 84.3 µM (inactive)
HOP-62
  GI50: > 100 µM (inactive)
SK-MEL-5
  GI50: > 100 µM (inactive)
HCT-116
  GI50: > 100 µM (inactive)
NCI-H522
  GI50: > 100 µM (inactive)
OVCAR-3
  GI50: > 100 µM (inactive)
SN12C
  GI50: > 100 µM (inactive)
M14
  GI50: > 100 µM (inactive)
SNB-78
  GI50: > 100 µM (inactive)
CCRF-CEM
  GI50: 59.6 µM (inactive)
MOLT-4
  GI50: 71.8 µM (inactive)
KM-20L2
  GI50: > 100 µM (inactive)
UO-31
  GI50: > 100 µM (inactive)
A549
  GI50: > 100 µM (inactive)
NCI-H23
  GI50: > 100 µM (inactive)
COLO 205
  GI50: > 100 µM (inactive)
DMS-114
  GI50: > 100 µM (inactive)
K562
  GI50: > 100 µM (inactive)
KM12
  GI50: > 100 µM (inactive)
DMS-273
  GI50: > 100 µM (inactive)
SK-MEL-2
  GI50: > 100 µM (inactive)
UACC-62
  GI50: > 100 µM (inactive)
HCT-15
  GI50: > 100 µM
SF-539
  GI50: > 100 µM (inactive)
UACC-257
  GI50: > 100 µM (inactive)
OVCAR-5
  GI50: > 100 µM (inactive)
786-0
  GI50: > 100 µM (inactive)
SW-620
  GI50: > 100 µM (inactive)
RXF 631
  GI50: 84.5 µM (inactive)
DLD-1
  GI50: 77.3 µM (inactive)
NCI-H460
  GI50: > 100 µM (inactive)
LXFL 529
  GI50: > 100 µM (inactive)
OVCAR-8
  GI50: > 100 µM (inactive)
HT-29
  GI50: > 100 µM (inactive)
U-251
  GI50: > 100 µM (inactive)
RXF 393
  GI50: 82 µM (inactive)

## Cc1cccc(C)c1NC(=O)C(=O)C(C(=O)c1ccccc1-c1ccccc1)C1OC(=O)c2ccccc21 (stereo not given)
SNB-75
  GI50: 22 µM (inactive)
LOX IMVI
  GI50: 19 µM (inactive)
HL-60
  GI50: 21 µM (inactive)
NCI-H226
  GI50: 11.6 µM (inactive)
Malme-3M
  GI50: 12.5 µM (inactive)
SK-MEL-28
  GI50: 22.9 µM (inactive)
SK-OV-3
  GI50: 27.6 µM (inactive)
M19-MEL
  GI50: 15.6 µM (inactive)
A498
  GI50: 18.7 µM (inactive)
SF-268
  GI50: 23.7 µM (inactive)
ACHN
  GI50: 43.9 µM (inactive)
IGROV-1
  GI50: 25.6 µM (inactive)
TK-10
  GI50: 26.7 µM (inactive)
HCC 2998
  GI50: 15.1 µM (inactive)
EKVX
  GI50: 26.3 µM (inactive)
HOP-62
  GI50: 16.9 µM (inactive)
SK-MEL-5
  GI50: 17.8 µM (inactive)
HCT-116
  GI50: 14.6 µM (inactive)
HOP-92
  GI50: 16.7 µM (inactive)
NCI-H522
  GI50: 10.9 µM (inactive)
OVCAR-3
  GI50: 17.1 µM (inactive)
M14
  GI50: 14.7 µM (inactive)
SNB-78
  GI50: 24.8 µM (inactive)
CCRF-CEM
  GI50: 19.4 µM (inactive)
MOLT-4
  GI50: 18.1 µM (inactive)
KM-20L2
  GI50: 28.8 µM (inactive)
UO-31
  GI50: 25.3 µM (inactive)
A549
  GI50: 25.6 µM (inactive)
NCI-H23
  GI50: 14.3 µM (inactive)
COLO 205
  GI50: 19.2 µM (inactive)
RPMI-8226
  GI50: 15.8 µM (inactive)
DMS-114
  GI50: 13.7 µM (inactive)
K562
  GI50: 30.4 µM (inactive)
KM12
  GI50: 20.9 µM (inactive)
SK-MEL-2
  GI50: 16.2 µM (inactive)
UACC-62
  GI50: 17.4 µM (inactive)
SF-295
  GI50: 31.3 µM (inactive)
SF-539
  GI50: 14.8 µM (inactive)
UACC-257
  GI50: 22.6 µM (inactive)
OVCAR-5
  GI50: 23.2 µM (inactive)
786-0
  GI50: 18.2 µM (inactive)
SW-620
  GI50: 26.4 µM (inactive)
RXF 631
  GI50: 31.8 µM (inactive)
DLD-1
  GI50: 17.5 µM (inactive)
NCI-H460
  GI50: 27.3 µM (inactive)
LXFL 529
  GI50: 13.5 µM (inactive)
OVCAR-8
  GI50: 29.6 µM (inactive)
HT-29
  GI50: 37.1 µM (inactive)
XF498
  GI50: 15.9 µM (inactive)
U-251
  GI50: 14.2 µM (inactive)
RXF 393
  GI50: 12.8 µM (inactive)
